Data published in patent publication US20150094321A1, “COMBINATION” (GlaxoSmithKline LLC, priority 2009, published 2015).

What was measured:
Assay in all cases: Cell line proliferation study
Type in all cases: cell-based, human
A549 = conditions: A549, lung; for IC50: Homo sapiens, 72 hours, read-out: gIC50
Method: (§1) In a separate study, combination drug tests with Compounds A and B were conducted using a panel of cell lines from human colon cancers (n=26), lung cancers (n=15) and pancreatic cancers (n=6). Cell lines were obtained from commercial vendors (ATCC and DSMZ). Cell lines were grown in RPMI-1640 supplemented with 2 mM glutamine, 1 mM sodium pyruvate and 10% fetal bovine serum (except for Capan-1 and HuP-T4 which were grown with 20% fetal bovine serum) and maintained at 37° C. and 5% CO2 in a humid incubator. Assays were performed in 384 well microtiter plates with optimum seeding densities for each cell line.
(§2) The test compounds were prepared as 10 mM stocks in 100% DMSO. Further dilutions of the compounds were made in DMSO. Compound A was diluted horizontally in a separate 96 well microtiter plate in rows D-G using a 3-fold dilution series for 10 dilution points. Compound B was similarly diluted horizontally in a 96 well microtiter plate in rows B-E using a 3-fold dilution series for 10 dilution points.
(§3) The two compounds were combined using equal volumes from each drug plate into cell culture media. […] Both Compound A and Compound B were individually titrated in rows B and C (for Compound B) and rows F and G (for Compound A) of the merged drug plate.
(§4) A 1:10 dilution of the drugs was performed in cell culture media prior to addition to the cells.
(§5) The final concentration range for the test compounds was 250 to 0.013 nM for Compound A and 1000 to […] for Compound B. The positive control consisted of culture media with DMSO at 0.1% and cells. The negative control consisted of culture media with DMSO at 0.1%. The cell lines were incubated at 37° C., 5% CO2 in humid air for 72 hours. Cell proliferation was measured using the CellTiter Glo (Promega) reagent according to the manufacturer's protocol. The plates are treated with CellTiter Glo solution and are analyzed for RLU (relative light units) using a Molecular Devices SpectraMax M5 plate reader.
(§6) The percent intensity values were used in model 205 of XLfit (IDBS, Inc.) in Microsoft Excel to calculate gIC50 values using a 4 parameter logistical fit. The midpoint of the growth window (the gIC50) falls half way between the number of cells at the time of compound addition (T=0) and the growth of control cells treated with DMSO at 72 hrs. The number of cells at time zero (T0) is divided from the intensity value at the bottom of the response curve (Ymin) to generate a measure for cell death (Ymin/T0). A value below 1 for Ymin/T0 indicates stronger potency to induce cell death with the treatment when compared to higher values. […]

ASPC1 = conditions: ASPC1, pancreas; for IC50: Homo sapiens, 72 hours, read-out: gIC50
Method: as §1, §2, §3, §4, §5, §6

BxPC3 = conditions: BxPC3, pancreas; for IC50: Homo sapiens, BXPC-3, 72 hours, read-out: gIC50
Method: as §1, §2, §3, §4, §5, §6

Colo201 = conditions: Colo201, colon; for IC50: Homo sapiens, COLO 201, 72 hours, read-out: gIC50
Method: as §1, §2, §3, §4, §5, §6

Colo320DM = conditions: colon; for IC50: Homo sapiens, COLO 320DM, 72 hours, read-out: gIC50
Method: as §1, §2, §3, §4, §5, §6

Colo320HSR = conditions: colon; for IC50: Homo sapiens, COLO-320-HSR, 72 hours, read-out: gIC50
Method: as §1, §2, §3, §4, §5, §6

DLD1 = conditions: DLD1, colon; for IC50: Homo sapiens, DLD-1, 72 hours, read-out: gIC50
Method: as §1, §2, §3, §4, §5, §6

HCC2998 = conditions: HCC2998, colon; for IC50: Homo sapiens, HCC 2998, 72 hours, read-out: gIC50
Method: as §1, §2, §3, §4, §5, §6

HCT-15 = conditions: HC115, colon; for IC50: Homo sapiens, HCT-15, 72 hours, read-out: gIC50
Method: as §1, §2, §3, §4, §5, §6

HCT116 = conditions: HCT116, colon; for IC50: Homo sapiens, HCT-116, 72 hours, read-out: gIC50
Method: as §1, §2, §3, §4, §5, §6

NCIH2170 = conditions: NCIH2170, lung; for IC50: Homo sapiens, NCI-H2170, 72 hours, read-out: gIC50
Method: as §1, §2, §3, §4, §5, §6

NCIH2228 = conditions: NCIH2228, lung; for IC50: Homo sapiens, NCI-H2228, 72 hours, read-out: gIC50
Method: as §1, §2, §3, §4, §5, §6

NCIH23 = conditions: NCIH23, lung; for IC50: Homo sapiens, NCI-H23, 72 hours, read-out: gIC50
Method: as §1, §2, §3, §4, §5, §6

NCIH358 = conditions: NCIH358, lung; for IC50: Homo sapiens, NCI-H358, 72 hours, read-out: gIC50
Method: as §1, §2, §3, §4, §5, §6

NCIH460 = conditions: NCIH460, lung; for IC50: Homo sapiens, NCI-H460, 72 hours, read-out: gIC50
Method: as §1, §2, §3, §4, §5, §6

NCIH508 = conditions: NCIH508, colon; for IC50: Homo sapiens, NCI-H508, 72 hours, read-out: gIC50
Method: as §1, §2, §3, §4, §5, §6

NCIH520 = conditions: NCIH520, lung; for IC50: Homo sapiens, NCI-H520, 72 hours, read-out: gIC50
Method: as §1, §2, §3, §4, §5, §6

NCIH747 = conditions: NCIH747, colon; for IC50: Homo sapiens, NCI-H747, 72 hours, read-out: gIC50
Method: as §1, §2, §3, §4, §5, §6

SW1116 = conditions: SW1116, colon; for IC50: Homo sapiens, SW 1116, 72 hours, read-out: gIC50
Method: as §1, §2, §3, §4, §5, §6

SW1417 = conditions: SW1417, colon; for IC50: Homo sapiens, 72 hours, read-out: gIC50
Method: as §1, §2, §3, §4, §5, §6

IC50 (A549) | IC50 (ASPC1) | IC50 (BxPC3) | IC50 (Colo201) | IC50 (Colo320DM) | IC50 (Colo320HSR) | IC50 (DLD1) | IC50 (HCC2998) | IC50 (HCT-15) | IC50 (HCT116) | Structure (SMILES) | Ymin/T0 (A549) | Ymin/T0 (ASPC1) | Ymin/T0 (BxPC3) | Ymin/T0 (Colo201) | Ymin/T0 (Colo320DM) | Ymin/T0 (Colo320HSR) | Ymin/T0 (DLD1) | Ymin/T0 (HCC2998) | Ymin/T0 (HCT-15) | Ymin/T0 (HCT116) | other results
12.9 nM | 19.7 nM | > 250 nM | 4 nM | > 250 nM | > 250 nM | 342 nM | 16.7 nM | > 250 nM | 23.2 nM | CC(=O)Nc1cccc(-n2c(=O)n(C3CC3)c(=O)c3c(Nc4ccc(I)cc4F)n(C)c(=O)c(C)c32)c1 [Compound A, N-{3-[3-cyclopropyl-5-(2-fluoro-4-iodo-phenylamino)-6,8-dimethyl-2,4,7-trioxo-3,4,6,7-tetrahydro-2H-pyrido[4,3-d]pyrimidin-1-yl]phenyl}acetamide] | 15.9 | 13.6 | 20.86 | −8.96 | 81.01 | 78.4 | 397 | 2.13 | 57.0 | 19.40 | IC50 (NCIH2170): > 250 nM; Ymin/T0 (NCIH2170): 59.5; IC50 (NCIH2228): > 250 nM; Ymin/T0 (NCIH2228): 39.7; IC50 (NCIH23): > 250 nM; Ymin/T0 (NCIH23): 36.3; IC50 (NCIH358): 17.3 nM; Ymin/T0 (NCIH358): 10.7; IC50 (NCIH460): 63 nM; Ymin/T0 (NCIH460): 39.1; IC50 (NCIH508): 22.6 nM; Ymin/T0 (NCIH508): 15.22; IC50 (NCIH520): > 250 nM; Ymin/T0 (NCIH520): 70.2; IC50 (NCIH747): 5.35 nM; Ymin/T0 (NCIH747): 5.55; IC50 (SW1116): 14.6 nM; Ymin/T0 (SW1116): 2.28; IC50 (SW1417): 2.86 nM; Ymin/T0 (SW1417): 16.19
> 1000 nM | > 1000 nM | > 1000 nM | > 1000 nM | > 1000 nM | > 1000 nM | > 1000 nM | 292 nM | > 1000 nM | > 1000 nM | Cn1ncc(Cl)c1-c1cc(C(=O)N[C@H](CN)Cc2ccc(F)c(F)c2)oc1Cl [Compound B, N-{(1S)-2-amino-1-[(3,4-difluorophenyl)methyl]ethyl}-5-chloro-4-(4-chloro-1-methyl-1H-pyrazol-5-yl)-2-furancarboxamide] | 32.7 | 42.9 | 71.87 | 80.16 | 9.81 | 28.6 | 29.0 | −4.90 | 30.4 | 25.31 | IC50 (NCIH2170): > 1000 nM; Ymin/T0 (NCIH2170): 18.2; IC50 (NCIH2228): > 1000 nM; Ymin/T0 (NCIH2228): 37.1; IC50 (NCIH23): > 1000 nM; Ymin/T0 (NCIH23): 41.5; IC50 (NCIH358): > 1000 nM; Ymin/T0 (NCIH358): 37.2; IC50 (NCIH460): 664 nM; Ymin/T0 (NCIH460): 20.8; IC50 (NCIH508): 68.2 nM; Ymin/T0 (NCIH508): 11.12; IC50 (NCIH520): 568 nM; Ymin/T0 (NCIH520): 15.0; IC50 (NCIH747): > 1000 nM; Ymin/T0 (NCIH747): 23.79; IC50 (SW1116): > 1000 nM; Ymin/T0 (SW1116): 37.32; IC50 (SW1417): > 1000 nM; Ymin/T0 (SW1417): 3.63
